The values that follow come from article PMC7113773 (Antiviral Research, 2014).

This test has as its system NA (H275Y), OSV-resistant mutant of influenza H1N1 (A/California/04/2009). It counts as biochemical, influenza A virus.

On to `Cc1cc2c(c(=S)[nH]1)C(=O)O/C2=C\c1c[nH]c2ccc(F)cc12` [Compound 15a, (Z)-1-((5-Fluoro-1H-indol-3-yl)methylene)-6-methyl-4-thioxo-4,5-dihydrofuro[3,4-c]pyridin-3(1H)-one], for which the “function of oseltamivir-resistant NA (H275Y)” value was “suppressed”.
